ChEMBL document CHEMBL4354839, “Heterobifunctional Molecules Induce Dephosphorylation of Kinases-A Proof of Concept Study” (J Med Chem, 2020)
Values belong to the compound of their own block, whether it stands above or below them. The source made the active and inactive calls. The calls are words filed in the database; no cut-off is given here. Residues, ends and D or L forms follow the SMILES beside them. *: point of attachment. X1 = O=C(C*)NCCOCCOCC(=O)Nc1ccc2[nH]c(=O)n(C3CCN(Cc4ccc(-c5nc6cc[nH]c(=O)c6cc5-c5ccccc5)cc4)CC3)c2c1

How the values were obtained:
[1] = biological target: EGFR/PPP1CA (Homo sapiens) (UniProt P00533+P62136); assay: Induction of PPI-mediated EGFR dephosphorylation in human HCC827 cells transfected with human Halo/FLAG-tagged PP1CA assessed as increase in EGFR Y1068 dephosphorylation at 10 uM incubated for 8 hrs by Western blot analysis; format: cell-based
HCC827 = assay: Induction of dephosphorylation of EGFR Y1068 in human HCC827 cells at 10 uM incubated for 8 hrs by Western blot analysis; format: functional, cell-based
[2] = biological target: T1, AKT1/PPP1CA (Homo sapiens) (UniProt P62136+P31749); assay: Induction of PPI (unknown origin)-mediated pAKT (T308) (unknown origin) dephosphorylation at 0.25 to 10 uM incubated for 1 hr by Western blot analysis; format: protein assay
[3] = biological target: T1, AKT1/PPP1CA (Homo sapiens); assay: Induction of PPI-mediated AKT dephosphorylation in human LnCaP cells at 0.1 to 10 uM incubated for 2 hrs by Western blot analysis; format: cell-based
[4] = biological target: T1, AKT1/PPP1CA (Homo sapiens); assay: Induction of PPI-mediated AKT dephosphorylation in human LnCaP cells assessed as increase in AKT T308 dephosphorylation at 10 uM incubated for 8 hrs by Western blot analysis; format: cell-based
[5] = biological target: T1, AKT1/PPP1CA (Homo sapiens); assay: Induction of PPI-mediated AKT dephosphorylation in human LnCaP cells assessed as increase in AKT S473 dephosphorylation at 10 uM incubated for 8 hrs by Western blot analysis; format: cell-based
[6] = biological target: T1, AKT1/PPP1CA (Homo sapiens); assay: Induction of PPI-mediated AKT dephosphorylation in human LnCaP cells assessed as increase in AKT dephosphorylation at 50 uM incubated for 8 hrs by Western blot analysis; format: cell-based
[7] = biological target: T1, AKT1/PPP1CA (Homo sapiens); assay: Induction of PPI (unknown origin)-mediated pAKT (T308) (unknown origin) dephosphorylation incubated for 1 hr by Western blot analysis; format: protein assay
[8] = biological target: T1, AKT1/PPP1CA (Homo sapiens); assay: Induction of PPI-mediated AKT dephosphorylation in human MCF7/neo HER2 cells assessed as increase in AKT T308dephosphorylation at 10 uM incubated for 8 hrs by Western blot analysis; format: cell-based
[9] = biological target: T1, AKT1/PPP1CA (Homo sapiens); assay: Induction of PPI-mediated AKT dephosphorylation in human MCF7/neo HER2 cells assessed as increase in AKT […] dephosphorylation at 10 uM incubated for 8 hrs by Western blot analysis; format: cell-based
[10] = biological target: T1, AKT1/PPP1CA (Homo sapiens); assay: Induction of PPI-mediated AKT dephosphorylation in human PC3 cells assessed as increase in AKT T308 dephosphorylation at 10 uM incubated for 8 hrs by Western blot analysis; format: cell-based
[11] = biological target: T1, AKT1/PPP1CA (Homo sapiens); assay: Induction of PPI-mediated AKT dephosphorylation in human PC3 cells assessed as increase in AKT S473 dephosphorylation at 10 uM incubated for 8 hrs by Western blot analysis; format: cell-based
[12] = biological target: T1, AKT1/PPP1CA (Homo sapiens); assay: Induction of PPI-mediated AKT dephosphorylation in human LnCaP cells assessed as increase in AKT T308 dephosphorylation at 10 uM incubated for 6 and 8 hrs by Western blot analysis; format: cell-based
[13] = biological target: T1, AKT1/PPP1CA (Homo sapiens); assay: Induction of PPI-mediated AKT dephosphorylation in human LnCaP cells assessed as increase in AKT T308 dephosphorylation at 10 uM incubated for 8 hrs in presence of PPI siRNA by Western blot analysis; format: cell-based
[14] = biological target: T1, AKT1/PPP1CA (Homo sapiens); assay: Induction of PPI-mediated AKT dephosphorylation in human LnCaP cells assessed as reduction in S6 phosphorylation at 10 uM incubated for 8 hrs by Western blot analysis; format: cell-based
[15] = biological target: T1, AKT1/PPP1CA (Homo sapiens); assay: Induction of PPI-mediated AKT dephosphorylation in human LnCaP cells transfected with human Halo/FLAG-tagged PP1CA at 10 uM incubated for 8 hrs by Western blot analysis; format: cell-based
[16] = biological target: T1, AKT1/PPP1CA (Homo sapiens); assay: Induction of PPI-mediated AKT dephosphorylation in human MCF7/neo HER2 cells transfected with human Halo/FLAG-tagged PP1CA at 10 uM incubated for 8 hrs by Western blot analysis; format: cell-based
[17] = biological target: T1, AKT1/PPP1CA (Homo sapiens); assay: Induction of PPI-mediated AKT dephosphorylation in human PC3 cells transfected with human Halo/FLAG-tagged PP1CA at 10 uM incubated for 8 hrs by Western blot analysis; format: cell-based

T1 sequence (P31749 whole entry, looked up): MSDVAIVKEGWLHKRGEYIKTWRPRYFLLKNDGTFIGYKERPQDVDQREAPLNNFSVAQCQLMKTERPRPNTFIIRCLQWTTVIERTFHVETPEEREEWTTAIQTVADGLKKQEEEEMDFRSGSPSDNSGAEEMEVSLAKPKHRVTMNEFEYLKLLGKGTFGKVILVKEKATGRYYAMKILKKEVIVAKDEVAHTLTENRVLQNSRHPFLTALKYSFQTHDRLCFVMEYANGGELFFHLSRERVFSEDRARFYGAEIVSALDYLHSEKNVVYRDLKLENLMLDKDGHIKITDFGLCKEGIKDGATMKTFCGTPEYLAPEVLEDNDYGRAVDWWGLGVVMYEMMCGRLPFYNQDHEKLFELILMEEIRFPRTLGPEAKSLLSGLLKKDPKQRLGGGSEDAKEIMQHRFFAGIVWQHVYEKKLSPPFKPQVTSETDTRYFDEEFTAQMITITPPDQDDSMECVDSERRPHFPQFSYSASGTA
T1 sequence (P62136 whole entry, looked up): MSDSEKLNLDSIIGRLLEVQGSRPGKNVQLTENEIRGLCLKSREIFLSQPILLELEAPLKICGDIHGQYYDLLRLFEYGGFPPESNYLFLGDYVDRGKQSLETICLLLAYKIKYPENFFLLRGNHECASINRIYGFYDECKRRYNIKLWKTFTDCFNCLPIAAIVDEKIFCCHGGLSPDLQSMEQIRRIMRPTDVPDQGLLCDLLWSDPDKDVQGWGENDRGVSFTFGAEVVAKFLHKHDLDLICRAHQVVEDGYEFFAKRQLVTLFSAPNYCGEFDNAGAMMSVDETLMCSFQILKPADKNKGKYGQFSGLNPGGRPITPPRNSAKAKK
Sequence of EGFR/PPP1CA (Homo sapiens) (P00533 whole entry, looked up): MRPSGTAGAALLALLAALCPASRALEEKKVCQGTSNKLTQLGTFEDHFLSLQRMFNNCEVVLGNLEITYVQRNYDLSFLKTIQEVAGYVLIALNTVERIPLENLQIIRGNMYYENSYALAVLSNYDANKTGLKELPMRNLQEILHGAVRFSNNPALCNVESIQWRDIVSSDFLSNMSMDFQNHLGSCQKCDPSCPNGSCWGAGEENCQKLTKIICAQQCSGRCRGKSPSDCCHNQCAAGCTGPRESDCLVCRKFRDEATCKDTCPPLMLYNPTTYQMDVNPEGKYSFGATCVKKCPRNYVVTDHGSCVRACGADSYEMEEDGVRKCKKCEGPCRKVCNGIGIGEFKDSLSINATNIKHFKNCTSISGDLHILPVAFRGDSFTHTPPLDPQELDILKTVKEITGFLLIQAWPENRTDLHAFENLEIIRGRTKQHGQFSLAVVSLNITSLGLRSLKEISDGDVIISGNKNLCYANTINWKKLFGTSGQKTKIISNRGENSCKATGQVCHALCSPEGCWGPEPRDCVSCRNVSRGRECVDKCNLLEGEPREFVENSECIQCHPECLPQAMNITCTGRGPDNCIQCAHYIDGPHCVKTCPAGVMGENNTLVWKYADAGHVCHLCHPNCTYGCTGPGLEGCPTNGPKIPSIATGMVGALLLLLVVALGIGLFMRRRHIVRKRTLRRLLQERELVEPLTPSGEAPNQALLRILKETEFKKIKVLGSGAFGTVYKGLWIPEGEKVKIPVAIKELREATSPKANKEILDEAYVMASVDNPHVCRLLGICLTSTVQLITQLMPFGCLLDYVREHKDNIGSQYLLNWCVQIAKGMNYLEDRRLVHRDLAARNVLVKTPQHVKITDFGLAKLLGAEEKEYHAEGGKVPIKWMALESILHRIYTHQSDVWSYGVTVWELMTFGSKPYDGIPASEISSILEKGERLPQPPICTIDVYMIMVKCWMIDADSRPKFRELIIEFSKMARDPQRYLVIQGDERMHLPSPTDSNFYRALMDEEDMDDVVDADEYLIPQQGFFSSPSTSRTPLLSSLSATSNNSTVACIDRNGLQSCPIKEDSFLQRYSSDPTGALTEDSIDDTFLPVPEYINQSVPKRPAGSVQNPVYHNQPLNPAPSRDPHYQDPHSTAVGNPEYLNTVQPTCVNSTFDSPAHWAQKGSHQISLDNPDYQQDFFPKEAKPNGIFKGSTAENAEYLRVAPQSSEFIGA
Sequence of EGFR/PPP1CA (Homo sapiens) (P62136 whole entry, looked up): as the sequence (P62136 whole entry, looked up) above

Activity [4]: inactive
Activity [5]: inactive
Activity [6]: Active
Compound: CC(=O)N[C@@H](CSCC(=O)NCCOCCOCCOCC(=O)N(C)CCN(C[C@@H](C(=O)N1CCN(c2ncnc3c2[C@H](C)C[C@H]3O)CC1)c1ccc(Cl)cc1)C(C)C)C(=O)N[C@@H](CCCNC(=N)N)C(=O)N[C@H](C(=O)N[C@@H](CO)C(=O)N[C@@H](C)C(=O)O)C(C)C

Activity [4]: Active
Activity [5]: Active
Activity [8]: Active
Activity [9]: Active
Activity [10]: Active
Activity [11]: Active
Activity [12]: Active
Activity [13]: inactive
Activity [14]: Active
Compound: CC(=O)N[C@@H](CSCC(=O)NCCOCCOCC(=O)Nc1ccc2[nH]c(=O)n(C3CCN(Cc4ccc(-c5nc6cc[nH]c(=O)c6cc5-c5ccccc5)cc4)CC3)c2c1)C(=O)N[C@@H](CCCNC(=N)N)C(=O)N[C@H](C(=O)N[C@@H](CO)C(=O)N(C)[C@@H](Cc1ccccc1)C(=O)O)C(C)C

Activity [4]: inactive
Activity [5]: inactive
Activity [8]: inactive
Activity [9]: inactive
Activity [10]: inactive
Activity [11]: inactive
Activity [12]: inactive
Activity [14]: Active
Compound: CC(=O)N[C@@H](CSCC(=O)NCCOCCOCC(=O)Nc1ccc2[nH]c(=O)n(C3CCN(Cc4ccc(-c5nc6cc[nH]c(=O)c6cc5-c5ccccc5)cc4)CC3)c2c1)C(=O)N[C@@H](CCCNC(=N)N)C(=O)N[C@H](C(=O)N[C@@H](CO)C(=O)N[C@@H](C)C(=O)O)C(C)C

The next lines start with the compound.

Compound: C=CC(=O)Nc1cc(Nc2nccc(-c3cn(C)c4ccccc34)n2)c(OC)cc1N(C)CCN1CCN(C(=O)COCCOCCOCCCCCCCl)CC1
Activity [1]: Active
Activity (HCC827): Active

Compound: CC[C@H](C)[C@H](NC(=O)[C@@H](NC(=O)[C@H](CCC(=O)O)NC(=O)[C@H](C)NC(=O)[C@H](C)NC(=O)[C@H](CCC(=O)O)NC(=O)[C@H](C)NC(=O)[C@H](Cc1ccccc1)NC(=O)[C@@H](NC(=O)[C@@H](NC(=O)[C@H](CCCNC(=N)N)NC(=O)[C@H](C)NC(=O)[C@H](CC(N)=O)NC(=O)[C@H](CCCCN)NC(=O)[C@H](CCCNC(=N)N)NC(=O)[C@H](CCCCN)NC(=O)[C@H](CCCNC(=N)N)NC(=O)[C@H](CCCCN)NC(=O)[C@@H]1CCCN1C(=O)[C@H](CCCNC(=N)N)NC(=O)[C@H](CSCC(=O)NCCOCCOCC(=O)Nc1ccc2[nH]c(=O)n(C3CCN(Cc4ccc(-c5nc6cc[nH]c(=O)c6cc5-c5ccccc5)cc4)CC3)c2c1)NC(C)=O)C(C)C)[C@@H](C)O)[C@@H](C)CC)C(=O)O (Ac-C(X1)RPKRKRKNARVTFAEAAEII-OH)
Activity [2]: Active
Activity [3]: inactive

Compound: CC(=O)Nc1ccc2[nH]c(=O)n(C3CCN(Cc4ccc(-c5nc6cc[nH]c(=O)c6cc5-c5ccccc5)cc4)CC3)c2c1
Activity [7]: Dose-dependent effect

Compound: O=C(CCC(=O)NCCOCCOCC(=O)Nc1ccc2[nH]c(=O)n(C3CCN(Cc4ccc(-c5nc6cc[nH]c(=O)c6cc5-c5ccccc5)cc4)CC3)c2c1)NCCOCCOCCCCCCCl
Activity [15]: Active
Activity [16]: Active
Activity [17]: Active
